Measured values taken from patent US5364842A (priority 1993, dated 1994).
“And” between values parts separate entries of the source, which are not always exact repeats. Identical values can stand only once.

Tests used:
[1] = test system: rat tail-flick latency to heat stimulus; conditions: in vivo
[2] = target: N-type or omega HVA neuronal calcium channels; calcium currents in N1E-115 neuroblastoma cells (Mus musculus, UniProt O55017); type: cell-based
[3] = test system: potassium-stimulated dopamine release from striatal slices; type: cell-based, rat; conditions: 1 µM
[4] = test system: potassium-stimulated acetylcholine release from striatal slices; conditions: 1 µM
[5] = test system: voltage-gated calcium currents in IMR-32 cells; type: cell-based, human

N-type or omega HVA neuronal calcium channels; calcium currents in N1E-115 neuroblastoma cells, sequence (O55017 whole entry): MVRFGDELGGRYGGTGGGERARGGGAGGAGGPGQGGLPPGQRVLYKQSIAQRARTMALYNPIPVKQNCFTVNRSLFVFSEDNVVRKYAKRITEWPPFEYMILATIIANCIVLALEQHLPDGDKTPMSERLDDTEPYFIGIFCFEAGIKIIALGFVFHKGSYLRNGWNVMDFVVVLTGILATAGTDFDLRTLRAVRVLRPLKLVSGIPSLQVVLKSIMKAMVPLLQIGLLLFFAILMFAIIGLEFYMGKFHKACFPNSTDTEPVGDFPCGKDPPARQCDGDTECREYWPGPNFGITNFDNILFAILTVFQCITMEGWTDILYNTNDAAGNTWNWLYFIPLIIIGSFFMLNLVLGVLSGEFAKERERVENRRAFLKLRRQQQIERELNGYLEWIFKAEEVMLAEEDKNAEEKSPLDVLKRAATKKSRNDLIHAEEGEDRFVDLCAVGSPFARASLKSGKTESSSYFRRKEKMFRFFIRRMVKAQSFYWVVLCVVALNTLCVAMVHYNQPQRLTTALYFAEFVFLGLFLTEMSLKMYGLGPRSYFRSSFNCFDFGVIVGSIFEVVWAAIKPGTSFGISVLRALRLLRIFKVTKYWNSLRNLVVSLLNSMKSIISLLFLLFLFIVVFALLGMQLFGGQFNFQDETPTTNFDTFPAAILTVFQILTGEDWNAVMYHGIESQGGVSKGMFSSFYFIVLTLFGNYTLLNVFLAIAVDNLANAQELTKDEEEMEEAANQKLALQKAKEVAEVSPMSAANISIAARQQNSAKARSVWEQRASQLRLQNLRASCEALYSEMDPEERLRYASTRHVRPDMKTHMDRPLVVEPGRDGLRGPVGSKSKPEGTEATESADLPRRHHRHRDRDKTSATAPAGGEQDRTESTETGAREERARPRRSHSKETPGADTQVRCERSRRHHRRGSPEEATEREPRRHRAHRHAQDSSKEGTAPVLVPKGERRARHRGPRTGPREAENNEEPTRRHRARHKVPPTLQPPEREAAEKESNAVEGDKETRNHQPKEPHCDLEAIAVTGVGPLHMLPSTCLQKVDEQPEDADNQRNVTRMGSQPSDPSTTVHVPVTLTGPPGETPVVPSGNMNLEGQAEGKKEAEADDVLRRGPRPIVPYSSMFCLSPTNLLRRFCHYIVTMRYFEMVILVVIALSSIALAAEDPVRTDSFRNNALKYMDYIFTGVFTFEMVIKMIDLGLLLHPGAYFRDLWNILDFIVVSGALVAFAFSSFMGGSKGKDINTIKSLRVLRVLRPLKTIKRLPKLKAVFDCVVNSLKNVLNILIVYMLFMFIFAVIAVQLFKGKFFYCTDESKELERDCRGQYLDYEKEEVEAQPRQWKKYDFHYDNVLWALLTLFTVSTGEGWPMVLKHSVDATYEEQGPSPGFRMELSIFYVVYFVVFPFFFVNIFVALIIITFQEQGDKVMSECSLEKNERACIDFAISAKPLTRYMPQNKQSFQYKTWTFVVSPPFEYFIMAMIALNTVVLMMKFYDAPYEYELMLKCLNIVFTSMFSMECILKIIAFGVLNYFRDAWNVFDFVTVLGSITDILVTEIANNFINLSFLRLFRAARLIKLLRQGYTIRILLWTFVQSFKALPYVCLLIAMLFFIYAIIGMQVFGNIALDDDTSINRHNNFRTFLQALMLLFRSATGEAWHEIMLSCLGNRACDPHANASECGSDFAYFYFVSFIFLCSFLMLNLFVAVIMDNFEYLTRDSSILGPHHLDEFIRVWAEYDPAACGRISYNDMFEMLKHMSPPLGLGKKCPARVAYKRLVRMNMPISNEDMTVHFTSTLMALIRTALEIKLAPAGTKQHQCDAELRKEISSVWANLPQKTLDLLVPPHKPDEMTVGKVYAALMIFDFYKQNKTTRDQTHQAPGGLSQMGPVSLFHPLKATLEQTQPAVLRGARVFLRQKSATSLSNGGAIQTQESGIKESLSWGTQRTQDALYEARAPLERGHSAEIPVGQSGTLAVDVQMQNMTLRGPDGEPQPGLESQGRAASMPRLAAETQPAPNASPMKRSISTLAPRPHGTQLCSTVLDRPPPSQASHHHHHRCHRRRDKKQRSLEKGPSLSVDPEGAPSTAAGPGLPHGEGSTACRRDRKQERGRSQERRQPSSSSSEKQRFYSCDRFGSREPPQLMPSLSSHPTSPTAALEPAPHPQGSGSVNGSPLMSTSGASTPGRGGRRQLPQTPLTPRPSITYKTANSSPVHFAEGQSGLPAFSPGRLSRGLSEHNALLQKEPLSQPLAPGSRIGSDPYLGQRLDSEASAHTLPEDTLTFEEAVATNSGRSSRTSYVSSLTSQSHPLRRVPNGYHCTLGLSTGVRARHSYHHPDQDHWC
N-type or omega HVA neuronal calcium channels; calcium currents in N1E-115 neuroblastoma cells, sequence (O08532 25-956 partner limits assumed): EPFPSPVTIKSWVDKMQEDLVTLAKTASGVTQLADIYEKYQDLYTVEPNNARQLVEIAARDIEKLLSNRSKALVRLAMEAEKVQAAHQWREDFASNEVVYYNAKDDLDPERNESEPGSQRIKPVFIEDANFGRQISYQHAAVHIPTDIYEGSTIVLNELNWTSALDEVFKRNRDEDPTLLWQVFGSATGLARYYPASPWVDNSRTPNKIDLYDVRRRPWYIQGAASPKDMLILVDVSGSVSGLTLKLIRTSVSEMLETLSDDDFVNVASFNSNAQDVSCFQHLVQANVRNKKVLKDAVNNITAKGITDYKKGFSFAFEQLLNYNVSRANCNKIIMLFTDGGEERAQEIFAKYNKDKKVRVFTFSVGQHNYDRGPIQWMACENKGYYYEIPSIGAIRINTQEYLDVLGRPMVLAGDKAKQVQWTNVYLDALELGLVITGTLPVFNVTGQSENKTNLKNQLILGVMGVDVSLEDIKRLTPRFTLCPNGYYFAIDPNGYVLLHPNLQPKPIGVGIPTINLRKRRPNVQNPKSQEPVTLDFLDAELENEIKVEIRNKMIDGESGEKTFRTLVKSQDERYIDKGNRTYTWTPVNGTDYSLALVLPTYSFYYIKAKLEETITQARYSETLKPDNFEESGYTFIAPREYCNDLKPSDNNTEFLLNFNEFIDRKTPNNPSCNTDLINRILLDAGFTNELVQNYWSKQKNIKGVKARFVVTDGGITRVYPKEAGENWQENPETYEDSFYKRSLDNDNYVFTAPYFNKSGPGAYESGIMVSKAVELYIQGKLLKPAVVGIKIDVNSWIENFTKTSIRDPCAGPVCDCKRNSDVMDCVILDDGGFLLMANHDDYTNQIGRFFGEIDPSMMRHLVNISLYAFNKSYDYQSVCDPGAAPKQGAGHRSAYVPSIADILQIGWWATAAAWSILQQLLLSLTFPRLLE
N-type or omega HVA neuronal calcium channels; calcium currents in N1E-115 neuroblastoma cells, sequence (O08532 957-1103 partner limits assumed): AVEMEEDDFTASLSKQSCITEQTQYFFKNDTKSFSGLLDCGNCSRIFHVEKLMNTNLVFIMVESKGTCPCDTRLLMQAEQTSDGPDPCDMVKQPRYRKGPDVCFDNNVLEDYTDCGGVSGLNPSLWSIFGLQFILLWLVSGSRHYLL

## CN1CC[C@]23c4c5ccc(O)c4O[C@H]2[C@@H](O)C=C[C@H]3[C@H]1C5 [Morphine, morphine]
[1]
  Analgesia (% Effect), mean MPE: 23
  Latency Percent Effect, mean: 17 and 19 and 18
  Latency Percent Effect, mean MPE: 26

## COC(=O)C1=C(C)NC(C)=C(C(=O)OC)C1c1ccccc1[N+](=O)[O-] [nifedipine]
[2]
  effect on the measured calcium current: no effect

## amiodipine
[3]
  % inhibition of [3H]dopamine release: 0
[4]
  % inhibition of [3H]acetylcholine release: 0

## cadmium
[5]
  effect of addition to the medium on remaining voltage-gated calcium currents: blockade of all remaining voltage-gated calcium currents
